Each block holds one compound with its values, some of them ahead of it.
Columns and labels:
[1] = Boiling point of ether bond-containing compounds; details: Table 5, Test Example 23; under atmospheric pressure
[2] = Solubility in water of ether bond-containing compounds; assay type: physicochemical
Description: The solubilities in water of the first ether bond-containing compound (propylene glycol monopropyl ether) in Test Example 1, the first ether bond-containing compound (dipropylene glycol monopropyl ether) in Test Example 7, and the ether bond-containing compound of the chemical formula I wherein R^2 has 4 (C4) or more carbon atoms (butylene glycol monobutyl ether) were compared.
The solubilities in water of the first ether bond-containing compound (propylene glycol monopropyl ether) in Test Example 1, the ether bond-containing compound (dipropylene glycol monopropyl ether) in Test Example 7, and the ether bond-containing compound of the chemical formula I wherein R^3 is an alkyl group (propylene glycol dibutyl ether) were compared.

SMILES: COCCOC(C)=O [Ethylene glycol monomethyl ether acetate, ethylene glycol monomethyl ether acetate]
Boiling point (° c.) [1]: 143 ° c.

Solubility in water (% by weight) ([2]; Table 4, Test Example 22): Less than 1 % by weight
SMILES: CCCCOCC(C)OCCCC (stereo not drawn) [Propylene glycol dibutyl ether, propylene glycol dibutyl ether]

Solubility in water (% by weight) ([2]; Table 3, Test Example 21): About 1 % by weight
SMILES: CCCCOCCCCO [Butylene glycol monobutyl ether, butylene glycol monobutyl ether]

Source: US11772041B2, “Composite amine absorbent, and device and method for removing CO2 or H2S, or both of CO2 and H2S” (MITSUBISHI HEAVY INDUSTRIES, LTD., priority 2019, dated 2023)
